Experimental data published in patent US4131615A, “Furan derivative for use as pharmaceutical product particularly for the treatment of rheumatic illnesses” (A. Wasserman S.p.A., priority 1977, dated 1978).

Legend:
[1] = Acute oral toxicity in mice; set-up: species or system male and female Swiss mice; settings: in vivo, mouse, 14 days, approximate value
Experimental: (§1) The product of the EXAMPLE 1, ±αmethyl-4-(furan-2-carbonyl)phenyl acetic acid, was subjected to toxicological and pharmacological tests in rats and mice. The animals used were Sprague Dawley rats and Swiss mice of both sexes, to which the product was administered orally as a 2% suspension in gum arabic parenterally as the sodium salt.
(§2) This has been tested in male and female mice weighing from 18 to 22 g and in female rats weighing from 90 to 120 grams.
(§3) The product was administered to groups of 6 mice and groups of 6 rats, mortality being looked for 14 days after the administration.

[2] = Acute oral toxicity in rats; set-up: species or system female Sprague Dawley rats; settings: in vivo, rat, 14 days, approximate value
Experimental: as §1, §2, §3

[3] = test system: edema induced by Carrageenan; experiment: Anti-inflammatory activity, Carrageenan-induced edema; format: in vivo, male Sprague Dawley rats; settings: 80 mg/Kg oral, 30 minutes before Carrageenan, after 3 hours
Experimental: as §1
An edema was induced in male rats weighing about 120 grams by injection into the aponeurosis under the plantaris of the left foot of 0.1 ml of 1% Carrageenan in saline.
The oral administration of 80-40-20 mg/Kg of product, 30 minutes before the inflammatory agent, reduced after 3 hours the development of the edema by rispectively 53%-47% -23% with respect to that induced in the controls.

[4] = test system: Nystatin subplantaris edema; experiment: Curative activity, Nystatin subplantaris edema; format: in vivo; settings: rat, doses equal to those cited above (80-40-20 mg/Kg)
Experimental: as §1

[5] = test system: Cotton-Pellet induced granuloma; experiment: Anti-inflammatory activity on Cotton-Pellet induced granuloma; format: in vivo, female Sprague Dawley rats; settings: 15 mg/Kg oral daily for 7 days, divided into 4 administrations over 9 hours
Experimental: as §1
3) Anti-inflammatory activity on Cotton-Pellet induced granuloma.
The oral administration daily for 7 days of a dose of 15 mg/Kg of the product, divided into 4 administrations taken over a time of 9 hours, reduced the formation of granulomatous tissue formed around Cotton-Pelletsplanted aseptically under the skin of female rats, weighing from 180 to 200 grams, by 17% with respect to controls.

[6] = test system: contortions caused by phenyl-p-benzoquinone; experiment: Analgesic activity, phenyl-p-benzoquinone contortions; format: in vivo, female Swiss mice; settings: Mus musculus; oral, female mice, contortions by intraperitoneal 0.02% phenyl-p-benzoquinone
Experimental: as §1
The oral administration of the product to female mice weighing from 18 to 22 grams reduced the number of contortions caused by the intraperitoneal injection of 0.1 ml/10 g of body weight of a 0.02% solution of phenyl-p-benzoquinone.

[7] = test system: Yeast-Induced fever; experiment: Antipyretic Effect in Yeast-Induced fever; format: in vivo, female Sprague Dawley rats; settings: 80 mg/Kg oral, after 60 minutes (peak-effect)
Experimental: as §1
5) Antipyretic Effect in Yeast-Induced fever.
The oral administration of rispectively 80-40-20 mg/Kg of the product to female rats reduces the increase in temperature of the rectum, caused by the injection under the skin of 10 ml/Kg of 15% brewer's yeast in 1% arabic gum, by rispectively 71%-63%-33% after 60 minutes (peak-effect) from the administration.

[8] = test system: experimentally induced arthritis (Freund's adjuvant arthritis); experiment: Freund's adjuvant arthritis; format: in vivo; settings: 20-40 mg/Kg oral, rat, confirmed by radiologic test
[9] = test system: arterial pressure; experiment: Action on arterial pressure; format: in vivo; settings: endovenous injection, 2.5-12.5-62.5 mg/Kg, rabbit
Description: 7) Action on arterial pressure.

Structure (SMILES): CC(C(=O)O)c1ccc(C(=O)c2ccco2)cc1 (racemic) [Example 1, ±α-methyl-4-(furan-2-carbonyl)-phenylacetic acid]
- LD50 at 336 h [1]: ~1000 mg/kg
- LD50 at 336 h [2]: ~980 mg/kg
- reduction of the development of the edema with respect to controls [3]: 53%
- regress of the Nystatin subplantaris edema (curative activity) [4]: induce in the rat a regress of the Nystatin subplantaris edema
- reduction of the formation of granulomatous tissue with respect to controls [5]: 17%
- ED50 [6]: 4.35 mg/kg
- reduction of the increase in temperature of the rectum [7]: 71%
- Recovery from experimentally induced arthritis [8]: Recovery from experimentally induced arthritis in the rat (Freund's adjuvant arthritis) has been obtained
- variations in the blood pressure [9]: does not induce significant variations in the blood pressure
